Results reported in patent publication US20090215791A1, “NEW THERAPEUTIC USE OF 4-(2-FLUOROPHENYL)-6-METHYL-2-(1-PIPERAZINYL)THIENO[2,3-D]PYRIMIDINE” (Dynogen Pharmaceuticals, Inc., priority 2001, published 2009).

Assays:
[1] = test system: inflammatory pain (inflamed paw); assay: Inflammatory pain, modified Randall Selitto method, paw pressure analgesiometer (Study 1); assay type: in vivo, rats; conditions: for Group mean (±sd) pain threshold (g) of inflamed paw at 1 hour pre-dose / Group mean (±sd) pain threshold (g) of inflamed paw at 2 hour pre-dose: baseline before dosing, 13 per group, groups later given MCI-225 30 mg/kg or indomethacin 1 mg/kg
Protocol: Three groups of rats received vehicle, indomethacin or MCI-225. There were 13 rats in each group. Inflammatory pain was induced following a modified Randall Selitto method and the pain threshold of the inflamed paw was measured using a paw pressure analgesiometer. The threshold for paw withdrawal was measured in grams at 1 and 3 hours post dose.

[2] = test system: reflex depressor response to colorectal distension; assay: Reflex depressor response to colorectal distension in anesthetised rats (Study 2); assay type: in vivo, male Sprague-Dawley rats; conditions: for Fall in arterial blood pressure (mean absolute decrease in mean arterial pressure, SEM in brackets) evoked by balloon distension: after MCI-225 3 mg/kg i.v.
Protocol: In Study 2, using intact animals, the ability of a drug to inhibit the reflex depressor response to colorectal distension can be assessed. In this model, an inhibition of the reflex indicates modulation of visceral nociceptive neurotransmission and, therefore, the use of the drug in functional bowel disease (e.g IBS); see Kozlowski et al, 2000, Gut 46, 474-480. Allodynia and visceral pain are important components of functional bowel disease.
Experiments were performed on male Sprague-Dawley rats (250-300 g). Anesthesia was induced with isoflurane (2.5% in oxygen) and maintained with alpha chlorolose (80 mg/kg i.v.). The left carotid artery was cannulated for the measurement of blood pressure and heart rate and the left jugular vein cannulated for drug administration. A tracheal cannula was implanted for artificial respiration if required. A 10 mm long latex balloon was inserted intrarectally so that the tip of the balloon was 20 mm from the anal verge (Kozlowski et al, supra). The balloon was connected via a double lumen cannula to a pressure transducer and also to a saline-filled syringe for inflation/deflation of the balloon. Throughout the experiment, body temperature was kept constant at 36-38 C using a homeothermic blanket.
Once stable baseline parameters were obtained (approximately after 20 minutes), the balloon was rapidly inflated with increasing volumes of saline (0.5-2.5 ml) for 30 seconds at 5 minute intervals, and the resultant change in blood pressure recorded. Three distinct response curves were constructed, with a 10 minute stabilisation period between each curve. In one group of animals, 10 minutes prior to the commencement of the final distension response curve, a single bolus of MCI-225 (3 mg/kg) was administered intravenously; in a second group of animals, a single bolus dose of vehicle was administered. The effect of MCI-225 and vehicle was determined by analysing the changes in colorectal distension that evoked depressor response.

Cc1cc2c(-c3ccccc3F)nc(N3CCNCC3)nc2s1.Cl.O [MCI-225, 4-(2-Fluorophenyl)-6-methyl-2-(1-piperazinyl)thieno[2,3-D]pyrimidine monohydrate hydrochloride]
Group mean changes (±sd) in pain threshold (g) from pre-dose reading at 1 hour post-dose ([1]; 1 hour post-dose, MCI-225 30 mg/kg (oral), indomethacin 1 mg/kg, rats, * p<0.05, ** p<0.01 vs vehicle, monohydrate hydrochloride): 32.3 g
Group mean changes (±sd) in pain threshold (g) from pre-dose reading at 3 hour post-dose ([1]; 3 hour post-dose, MCI-225 30 mg/kg (oral), indomethacin 1 mg/kg, rats, * p<0.05, ** p<0.01 vs vehicle, monohydrate hydrochloride): 66.9 g
Analgesic activity in in vivo model of inflammatory pain (in words) ([1]; MCI-225 oral dose of 30 mg/kg versus indomethacin 1 mg/kg): comparable to that of indomethacin
Group mean (±sd) pain threshold (g) of inflamed paw at 1 hour pre-dose ([1]; rats): 147.7 ± 65.91 g
Group mean (±sd) pain threshold (g) of inflamed paw at 2 hour pre-dose ([1]; rats): 138.5 ± 34.72 g
Fall in arterial blood pressure (mean absolute decrease in mean arterial pressure, SEM in brackets) evoked by balloon distension ([2]; 0.5 ml balloon volume, n=6, before drug 2.7 (1.9)): 2.2 (1.65) mmHg
Fall in arterial blood pressure (mean absolute decrease in mean arterial pressure, SEM in brackets) evoked by balloon distension ([2]; 1.0 ml balloon volume, n=6, before drug 12.4 (5.9)): 6.3 (2.6) mmHg
Fall in arterial blood pressure (mean absolute decrease in mean arterial pressure, SEM in brackets) evoked by balloon distension ([2]; 1.5 ml balloon volume, n=6, before drug 24.0 (8.9)): 10.6 (3.9) mmHg
Fall in arterial blood pressure (mean absolute decrease in mean arterial pressure, SEM in brackets) evoked by balloon distension ([2]; 2.0 ml balloon volume, n=6, before drug 36.3 (4.8), p<0.01 paired t test): 15.3 (5.4) mmHg
Fall in arterial blood pressure (mean absolute decrease in mean arterial pressure, SEM in brackets) evoked by balloon distension ([2]; 2.5 ml balloon volume, n=5, before drug 43.4 (6.0), p<0.05 paired t test): 24.6 (7.3) mmHg
Effect on distension-induced falls in blood pressure (in words) ([2]; MCI-225 3 mg/kg i.v., significant at 2.0 and 2.5 ml balloon volumes): inhibited the distension-induced falls in blood pressure

COc1ccc2c(c1)c(CC(=O)O)c(C)n2C(=O)c1ccc(Cl)cc1 [Indomethacin, indomethacin, reference compound]
Group mean (±sd) pain threshold (g) of inflamed paw at 1 hour pre-dose ([1]; rats): 166.2 ± 68.32 g
Group mean (±sd) pain threshold (g) of inflamed paw at 2 hour pre-dose ([1]; rats): 144.2 ± 41.32 g
